Where a SMILES comes first, the peptide text is derived from it. Where no end group is shown, it is not given here. [ ]: non-standard residue; d: D form. Phg(4-OMe) = COc1ccc([C@H](N)C(=O)O)cc1; dPhg = N[C@@H](C(=O)O)c1ccccc1; Phg = N[C@H](C(=O)O)c1ccccc1
Test system: not given
Experiment: not given
Conditions: in vivo; cited from earlier work

Row | Compound | analgesic potential
1 | Y[dA]GF[dF]-OH | limited analgesic potential

Test system: mouse
Experiment: mouse hot plate test (analgesic activity)
Format: in vivo
Conditions: subcutaneous, hot plate 52° C., 15 minutes after administration, latency until jump
Method: In this test, a mouse is placed inside an upright acrylic cylinder comprising, as its base, a hot plate surface which is maintained at 52° C. The mouse is given, orally or by subcutaneous injection, a predetermined amount of test compound dissolved or suspended in a suitable carrier, and, 15 minutes after administration of the test compound, the mouse is placed on the hot plate surface. The latency in seconds until the mouse jumps from the hot plate surface is measured. […] This must occur in a dose range which produces no motor incoordination or incapacitation. The following Table records the ED50 results obtained from this test.

Row | Compound | Analgesic Activity, Hot Plate Test ED50
2 | L-Tyrosyl-D-alanyl-glycyl-L-phenylalanyl-D-phenylglycin-N-methylamide [Example 5] | 0.74 mg/kg
3 | C[C@@H](NC(=O)[C@@H](N)Cc1ccc(O)cc1)C(=O)NCC(=O)N[C@@H](Cc1ccccc1)C(=O)N[C@H](C(N)=O)c1ccccc1 [Example 2, L-Tyrosyl-D-alanyl-glycyl-L-phenylalanyl-L-phenylglycinamide] (H-Y[dA]GF[Phg]-NH2) | 0.40 mg/kg
4 | COc1ccc([C@H](NC(=O)[C@H](Cc2ccccc2)NC(=O)CNC(=O)[C@@H](C)NC(=O)[C@@H](N)Cc2ccc(O)cc2)C(N)=O)cc1 [Example 1, L-Tyrosyl-D-alanyl-glycyl-L-phenylalanyl-L-p-methoxyphenylglycinamide] (H-Y[dA]GF[Phg(4-OMe)]-NH2) | 3.14 mg/kg
5 | CCN(C(=O)CNC(=O)[C@@H](C)NC(=O)[C@@H](N)Cc1ccc(O)cc1)[C@@H](Cc1ccccc1)C(=O)N[C@H](C(N)=O)c1ccccc1 [Example 8, L-Tyrosyl-D-alanyl-glycyl-L-(N-ethyl)phenylalanyl-L-phenylglycinamide] | 0.064 mg/kg
6 | C[C@@H](NC(=O)[C@@H](N)Cc1ccc(O)cc1)C(=O)NCC(=O)N(C)[C@@H](Cc1ccccc1)C(=O)N[C@@H](C(N)=O)c1ccccc1 [Example 7, L-Tyrosyl-D-alanyl-glycyl-L-(N-methyl)phenylalanyl-D-phenylglycinamide] | 3.82 mg/kg
7 | L-Tyrosyl-D-alanyl-glycyl-L-phenylalanyl-D-p-hydroxyphenylglycinamide [Example 4] | 1.0 mg/kg
8 | C[C@@H](NC(=O)[C@@H](N)Cc1ccc(O)cc1)C(=O)NCC(=O)N(C)[C@@H](Cc1ccccc1)C(=O)N[C@H](C(N)=O)c1ccccc1 [Example 6, L-Tyrosyl-D-alanyl-glycyl-L-(N-methyl)phenylalanyl-L-phenylglycinamide] | 0.19 mg/kg
9 | C[C@@H](NC(=O)[C@@H](N)Cc1ccc(O)cc1)C(=O)NCC(=O)N[C@@H](Cc1ccccc1)C(=O)N[C@@H](C(N)=O)c1ccccc1 [Example 3, L-Tyrosyl-D-alanyl-glycyl-L-phenylalanyl-D-phenylglycinamide] (H-Y[dA]GF[dPhg]-NH2) | 0.23 mg/kg
10 | CCCN(C(=O)CNC(=O)[C@@H](C)NC(=O)[C@@H](N)Cc1ccc(O)cc1)[C@@H](Cc1ccccc1)C(=O)N[C@H](C(N)=O)c1ccccc1 [Example 9, L-Tyrosyl-D-alanyl-glycyl-L-(N-n-propyl)phenylalanyl-L-phenylglycinamide] | 0.15 mg/kg

Test system: mice
Experiment: not given
Conditions: administration intracerebroventricularly; cited from earlier work

Row | Compound | analgesic activity
11 | H-Tyr-Gly-Gly-Phe-Met-OH [methionine enkephalin] | exhibit analgesic activity

Test system: not given
Experiment: not given
Conditions: administered parenterally; cited from earlier work

Row | Compound | useful analgesic activity
12 | H-Tyr-Gly-Gly-Phe-Met-OH [methionine enkephalin] | practically devoid of any useful analgesic activity
